# Experimental data reported in patent publication US20050244413A1, “Compositions and methods for treating cancer using cytotoxic CD44 antibody immunoconjugates and chemotherapeutic agents” (priority 2002, published 2005).
# Where “and” joins values, the source holds several entries; their conditions need not be identical. Identical values can stand only once.
# Key:
# A431 tumors = experiment: BIWI 1 monotherapy in A431 xenografted nude mice; format: in vivo, mouse; conditions: five consecutive days
# Experimental: In vivo anti-tumor efficacy of BIWI 1 was tested in three nude mouse xenograft models applying antigen-positive human tumors: A431 (ATCC # CRL 1555; epidermoid carcinoma of the vulva), FaDu (ATCC # HTB 43; squamous cell carcinoma of the pharynx), and MDA-MB 453 (ATCC # HTB-131; breast carcinoma). The cells were received from ATCC and cultured in RPMI1640 medium containing 10% fetal calf serum and supplements. 1×10^6 tumors cells were transplanted subcutaneously into the right flank of 6 week old female NMRI-nu/nu mice. Tumor growth was monitored by measuring tumor size. A tumor response was rated as complete response when the tumor completely disappeared at any time after start of treatment. The response was rated as partial response when the tumor volume decreased after treatment but thereafter started regrowing. The tolerability of the treatment was monitored by measuring mouse weight during the observation period.
# Mice were randomised into the following treatment groups (treatment/initial mean tumor volume/tumor volume range/number of mice): • Group 1: Control (PBS)/185±217 mm^3/19-424 mm^3/5 mice. • Group 2: BIWA 4 (21 mg/kg/d)/133±115 mm^3/42-302 mm^3/5 mice. • Group 3: BIWI 1 (2.1 mg/kg/d)/107±63 mm^3/42-205 mm^3′/5 mice. • Group 4: BIWI 1 (7 mg/kg/d)/132±73 mm^3/42-205 mm^3/5 mice. • Group 5: BIWI 1 (21 mg/kg/d)/107±[…]/42-205 mm^3/5 mice.
# Groups of 5 mice were treated with 2.1 mg/kg/d BIWI 1, 7 mg/kg/d BIWI 1, 21 mg/kg/d BIWI 1, and 21 mg/kg/d control antibody, respectively. Treatment consisted of i.v. injections of BIWI 1 given on five consecutive days, starting at day 1.
# mouse CD44v6 = experiment: Cross-reactivity with mouse CD44v6; format: binding
# FaDuDD tumors = experiment: BIWI 1 combination with cisplatin in nude mice xenografted with FaDuDD tumors; format: in vivo, mouse
# Experimental: The antibody solution was injected into the tail vein with an injection volume of 200 μl for a 25 g mouse. In the control groups without BIWI 1 treatment animals were injected i.v. with PBS. […] The solution was injected into the tail vein with an injection volume of 200 μl for a 25 g mouse. […] The solution was injected into the tail vein with an injection volume of 200 μl for a 25 g mouse.
# Tumor sizes and body weights were recorded 2-3 times per week. Tumor sizes were measured with a calliper (length and width) and the volume was calculated according to the following formula: volume (length)×(width)^2×([…]). The tolerability of the treatment was monitored by measuring mouse weight during the whole observation period. […] For calculation of the mean tumor volumes per group, the last values of tumor size for individual animals were carried forward in case that these animals had to be sacrificed due to large tumor burden before the whole group was terminated. In addition to the absolute tumor volume in mm^3, the relative tumor volumes (RTV) were calculated as follows:
# RTV=(tumor volume at day x)/(tumor volume at start of treatment)×100 For the evaluation of treatment efficacy the following parameters were calculated: • T/C (%)=(mean RTV of treated group)/(mean RTV of control group)×100 • T4T (tumor quadrupling time)=time until the mean RTV reaches 400% • GDF4 (growth delay factor)=T4T treated/T4T control.
# In addition, for some experiments, the mean time for tumors to reach 8 times (T8T) their initial sizes were also calculated. The growth delay factor (GDF8) was then calculated accordingly. Percentages of mean relative tumor volumes of treated versus control groups (T/C) were calculated on the days indicated. For statistical evaluation of combination therapies exact Wilcoxon tests were used. Tolerability was assessed by monitoring body weight changes.
# A different set of experiments was done with cisplatin. In a pilot experiment, a dose of 4 mg/kg cisplatin administered i.v. four times in weekly intervals was determined to be non-curative in this model, and also represents the maximum tolerated dose in the mouse strain used. This dose of cisplatin was combined with BIWI 1 at the non-curative doses of 200 μg/kg DM1 and 300 Ag/kg DM1 already used in the previous experiment. […] In the latter combination group 2/8 complete tumor regressions could be observed. […] Treatment was well tolerated in all groups.
# MDA-MB-453 tumors [1] = experiment: BIWI 1 combination with doxorubicin in nude mice xenografted with MDA-MB-453 tumors; format: in vivo, mouse
# Experimental: Similar experiments as outlined under Section 2.6 were undertaken in a human breast carcinoma xenograft model. Experiments were performed using nude mice xenografted subcutaneously with the human breast carcinoma cell line MDA-MBA53. […] The efficacy of these combinations was compared to those of the respective monotherapies by i) analysing the tumor volumes over time and ii) by determining the time for tumors to reach a certain size (tumor growth delay).
# The dilutions were prepared freshly for each application or stored at +4° C. during the whole treatment period. […] Doxorubicin (Doxorubicin “Ebewe”®, 2 mg/ml) was diluted in PBS. 200 μl of solutions with different concentrations were injected into the tail vein. Docetaxel (Taxotere®, Aventis, 10 mg/ml) was diluted in 0.9% NaCl. 200 μl of solutions with different concentrations were injected into the tail vein.
# The xenograft model was handled slightly different as outlined under Section 2.1. Briefly, 1×10^7 MDA-MB-453 cells (ATCC No. HTB-131) were injected into the mammary fat pad of female NMRI nu/nu mice. After reaching a volume of approximately 1000 mm^3 tumors were excised, cut into 4×4 mm pieces and passaged further subcutaneously. Tumor fragments were cryoconserved in 90% RPMI 1640/10% dimethylsulfoxide (slow freezing process down to −80° C., storage in liquid nitrogen). For further passaging, frozen tumor fragments were thawed, washed 3 times in PBS and implanted subcutaneously into the right and left flanks of a 4-5 female NMRI nu/nu mice. Tumors of these mice were then used to prepare the animals for a therapy experiment. Tumors were excised with a size of approximately 10 mm in diameter, cut into 2×2 mm pieces and implanted subcutaneously into the right flank of 6-8 week old female NMRI nu/nu mice. Approximately twice as many animals as needed for the experiment were prepared. When tumors reached a size of 5-10 mm in diameter (10-14 days after implantation), animals were randomised and treatments were started. Animals were obtained from Harlan (Germany) or M&B (Denmark). Tumor sizes and body weights were recorded as described in Section 2.7.
# MDA-MB-453 tumors [2] = experiment: BIWI 1 combination with capecitabine in nude mice xenografted with MDA-MB-453 tumors; format: in vivo, mouse; conditions: BIWI 1 75 μg/kg DM1 i.v. q7dx3
# Experimental: The xenograft model MDA-MB-453 was handled as in Section 2.8.
# BIWI 1 solution (protein concentration 2.95 mg/ml, 53.6 μg DM1/ml, 3.7 molecules DM1/molecule antibody) was diluted in PBS to a DM1 concentration of 75 μg/kg body weight. […] The antibody solution was injected into the tail vein with an injection volume of 200 μl for a 25 g mouse. In the control groups without BIWI 1 treatment animals were injected i.v. with PBS. BIWI 1 was given i.v. into the tail vein at a dose of 75 μg DM1/kg once weekly, for three weeks. Capecitabine (150 mg tablets, Roche) was given intragastrically (by gavage needle, as a suspension in water) at a dose of 375 or 500 mg/kg during three weeks on 5 consecutive days per week.
# To assess the efficacy of BIMI 1 in combination with capecitabine, non-curative doses of both drugs were tested as single agents or in combination in nude mice xenografted with MDA-MB453 tumors.
# For the combinations experiments BIWI 1 with 75 μg/kg DM1 was combined with 375 or 500 mg/kg capecitabine.
# [3] = 7 mg/kg/d or 21 mg/kg/d BIWI 1 i.v.
# [4] = BIWI 1 200 μg/kg DM1 i.v. q7dx4
# [5] = BIWI 1 300 μg/kg DM1 i.v. q7dx4
substance,measurement,setting,value
BIWI 1,tumors with partial response,"A431 tumors; 2.1 mg/kg/d BIWI 1 i.v., 5 mice",2
same,complete responses,"A431 tumors; 2.1 mg/kg/d BIWI 1 i.v., no regrowth until day 134",3/5
same,day on which tumors disappeared,A431 tumors; [3],~17 days
same,tumor regrowth until end of observation period (day 134),A431 tumors; [3],No tumor regrowth
same,tumor response,A431 tumors; [3],all tumors responded completely
same,cross-reaction with mouse CD44v6,mouse CD44v6,does not cross-react
same,GDF4,FaDuDD tumors; [4],2.2
same,T4T,FaDuDD tumors; [4],23.2 days
same,T/C (d 19),FaDuDD tumors; [4],59%
same,GDF4,FaDuDD tumors; [5],2.3
same,T4T,FaDuDD tumors; [5],24.8 days
same,T/C (d 19),FaDuDD tumors; [5],27%
same,GDF4,MDA-MB-453 tumors [1]; BIWI 1 50 μg/kg DM1 i.v. q7dx4,1.0
same,T/C (d13),MDA-MB-453 tumors [1]; BIWI 1 50 μg/kg DM1 i.v. q7dx4,68%
same,GDF4,MDA-MB-453 tumors [1]; BIWI 1 75 μg/kg DM1 i.v. q7dx4,1.6
same,T4T,MDA-MB-453 tumors [1]; BIWI 1 75 μg/kg DM1 i.v. q7dx4,13 days and 13.0 days
same,T/C (d13),MDA-MB-453 tumors [1]; BIWI 1 75 μg/kg DM1 i.v. q7dx4,59%
same,tumor bearing animals cured,"MDA-MB-453 tumors [1]; BIWI 1 100 μg/kg DM1, q7dx4",4/6
same,GDF4,MDA-MB-453 tumors [2],2.6
same,T4T,MDA-MB-453 tumors [2],26.9 days
same,T/C (d25),MDA-MB-453 tumors [2],31%
